Data: patent publication US20260193171A1, “PHARMACEUTICAL SALT OF POLYAMINE DERIVATIVE, CRYSTAL FORM THEREOF, AND PREPARATION METHOD THEREFOR” (WUHAN WUYAO SCI & TECH CO., LTD, priority 2022, published 2026)
Where two headings read alike, the source gives them in different places.

Legend:
Assay type in all cases: physicochemical
[1] = Screening of salt form (salt-forming morphology); details: for Salt-forming morphology: free base in ethanol plus acid, room temperature, acid-base molar feeding ratio 1:1 (α, unmarked) or 3:1 (β)
Experimental: The subsequent processing steps were as follows: 1) the turbid system(s) was centrifuged to separate solids; 2) the wall-sticking and gelling system(s) was subjected to cyclic heating and cooling treatment at 25-50° C. (the heating and cooling procedure is shown in Table 5) for the purpose of trying to improve the apparent state/obtain solids; 3) the clear or slightly turbid system(s) was magnetically stirred at 5° C. for about 5 h, and then left to stand at −20° C. overnight for the purpose of trying to collect a sufficient amount of solids for subsequent characterization, and if the amount of solids was still low, slow volatilization at room temperature was performed; if the system(s) was still clear ultimately, anti-solvent addition (n-heptane) or slow volatilization at room temperature was performed. The solids obtained above were centrifuged.

[2] = Determination of hygroscopicity (Chinese Pharmacopoeia 2015); details: 25° C., 80% RH, 24 h; for Hygroscopicity (%): weight gain
Experimental: The hygroscopicity was determined by referring to the guiding principle of the hygroscopicity test of medicaments in the Phamacopoeia of the People's Republic of China 2015 Edition. The specific test method is as follows: • 1. taking a dried glass weighing bottle with a stopper (outside diameter: 50 mm, height: 15 mm) and placing in a suitable 25° C.±1° C. thermostatic dryer (with a saturated ammonium chloride or ammonium sulfate solution placed in the lower part) or a climatic cabinet (with temperature set at 25° C.±1° C., and relative humidity set at 80%±2%) one day before the test, and accurately weighing the weight (m1). • 2. taking an appropriate amount of a test sample, spreading it in the weighing bottle described above with a thickness of about 1 mm, and accurately weighing the weight (m2). • 3. opening the weighing bottle, and placing it under constant temperature and humidity conditions for 24 h together with the bottle cap. • 4. covering the weighing bottle, and accurately weighing the weight (m3).
(§1) The stability of the samples were determined by HPLC, and specifically, Agilent 1260 Infinity II LC System (equipped with a DAD detector) was used to collect the purity and solubility data of samples. The hygroscopicity of samples was determined according to the method in the Phamacopoeia of the People's Republic of China, and the specific determination method is shown in section “6. Determination of hygroscopicity” of the specification.

[3] = Stability of free base left at room temperature
[4] = Observation of isolated solid after filtration; details: after slurrying with ethyl acetate and filtration, room temperature
Experimental: The solution of phosphoric acid in methanol was slowly and dropwise added to the solution of the free base in methanol. The mixture was reacted under stirring at 0-5° C. for 4 h. Serious wall sticking was observed. After the methanol was concentrated to dryness, the sticky solid on the wall was scraped by a spatula, slurried with ethyl acetate, and then filtered. […] The oil was dried in an oven at 30° C. for 16 h to obtain a solid. The solid was sampled for purity, content, and acid-base ratio tests. The acid-base ratio is the molar amount of phosphoric acid/the molar amount of bis((N-3-aminopropyl)-(N-(3,4-dimethoxyphenylpropionyl)))aminopropylamine, namely the acid-base molar ratio.

[5] = Solid stability test at 25° C./60% RH, chemical purity by HPLC; details: for Change in properties and purity on storage: 5 days and 2 weeks; for Purity (peak area, %) 0 day: initial sample; for Stability (judgement in words): room temperature storage
Experimental: The stability of a sample(s) was determined by HPLC, and specifically, Agilent 1260 Infinity II LC System (equipped with a DAD detector) was used to collect the purity and solubility data of the sample(s).
To assess the solid stability of different salts, about 15 mg of a sample was weighed into an HPLC vial, and the vial was opened and placed at 25° C./60% RH. The initial sample and the samples stored for 5 days and 2 weeks were subjected to chemical purity assays (HPLC) and hygroscopicity tests. […] The solid phosphate prepared with an acid-base feeding ratio of 1 or 3 was sampled to measure the acid-base ratio, and the test method for the content of phosphate radical ions is shown in Table 2.
as §1

[6] = Stability of acid-base ratio on recrystallization in methanol-water or water-methanol; details: methanol-water or water-methanol recrystallization system
[7] = Dynamic solubility in water and biological vehicles at 37° C.; details: for solubility: thermodynamic from solid, 100 rpm, 1/4/24 h, HPLC
Experimental: The phosphate was subjected to dynamic solubility tests in water and 3 biological vehicles (simulated gastric juice SGF, simulated fasting intestinal juice FaSSIF, and simulated feeding intestinal juice FeSSIF) at 37° C., and the specific method for the solubility tests were as follows: four samples of 30 mg each were weighed, and added into 3 mL of water and 3 biological solvents separately, and shaken at a constant temperature of 37° C.
The solubility of the phosphate in water/SGF/FaSSIF/FeSSIF was >9 mg/mL. The solubility of samples was determined by HPLC, and specifically, Agilent 1260 Infinity II LC System (equipped with a DAD detector) was used to collect the purity and solubility data of samples. […] The phosphate had good solubility both in water and simulated in-vivo environment.

[8] = Crystal form stability of phosphate crystal form A; details: 2 weeks
Experimental: The conditions of the X-ray powder diffractometer (XRPD) test were as follows: X-ray powder diffraction data of a sample(s) was collected at ambient conditions using Bruker D2 PHASER X-ray powder diffractometer with an X-ray emitter power of 300 W, a sample stage with no background signal, a step speed of 0.15 s/step, total step of 1837 steps, a step size of 2θ=0.02°, a voltage of 30 kV, and a current of 10 mA. The X-ray tube was a tube of Cu target (Kα) with a Kα2/Kα1 strength ratio of 0.50 (1.54439 Å/1.5406 Å).

O=C(O)c1cc(O)ccc1O [Gentisic acid]
Salt-forming morphology [1]: Gel^†

CS(=O)(=O)O [Methanesulfonic acid]
Salt-forming morphology [1]: Gel*

Cc1ccc(S(=O)(=O)O)cc1 [p-Toluene sulfonic acid]
Salt-forming morphology [1]: Gel*

bis((N-3-aminopropyl)-(N-(3,4-dimethoxyphenylpropionyl)))aminopropylamine hydrochloride [Hydrochloride^α]
Hygroscopicity class [2]: extremely hygroscopic
Hygroscopicity (%) [2]: 24.7%

O=C(O)c1ccccc1 [Benzoic acid]
Salt-forming morphology [1]: Oil^#

COc1ccc(CCC(=O)NCCCN(CCCN)CCCNC(=O)CCc2ccc(OC)c(OC)c2)cc1OC [free base, bis((N-3-aminopropyl)-(N-(3,4-dimethoxyphenylpropionyl)))aminopropylamine]
Purity before storage ([3]; initial): 97.56%
Purity after left at room temperature for 7 days ([3]; room temperature, 7 days): 73.73%

COc1ccc(CCC(=O)NCCCN(CCCN)CCCNC(=O)CCc2ccc(OC)c(OC)c2)cc1OC.O=P(O)(O)O [Comparative Example 1, bis((N-3-aminopropyl)-(N-(3,4-dimethoxyphenylpropionyl)))aminopropylamine phosphate]
Hygroscopic behaviour of solid after filtration [4]: extremely hygroscopic and quickly turned into an oil

O=C(O)/C=C/C(=O)O [Fumaric acid]
Salt-forming morphology [1]: Gel^#

bis((N-3-aminopropyl)-(N-(3,4-dimethoxyphenylpropionyl)))aminopropylamine phosphate
Purity (peak area, %) 2 weeks ([5]; 25° C./60% RH, open vial, 2 weeks, HPLC): 99.24%
Change in properties and purity on storage ([5]; 25° C./60% RH, open vial): change into liquid from powdery solid
Purity (peak area, %) 5 days ([5]; 25° C./60% RH, open vial, 5 days, HPLC): 99.41%
Purity (peak area, %) 0 day ([5]; 25° C./60% RH, open vial, HPLC): 99.45%
Stability (judgement in words) [5]: poor stability
Hygroscopicity class [2]: extremely hygroscopic
Hygroscopicity (%) [2]: 18.05%
Change of acid-base ratio after recrystallization [6]: more than 10%

O=C(O)CCC(=O)O [Succinic acid]
Salt-forming morphology [1]: Gel*

Oxalate
Salt-forming morphology [1]: Solid
Hygroscopicity class [2]: extremely hygroscopic
Hygroscopicity (%) [2]: 18.62%

O=C(O)[C@H](O)[C@@H](O)C(=O)O [L-tartaric acid]
Salt-forming morphology [1]: Solid^※
State of solid after being sealed and placed at room temperature ([1]; sealed, 1 week): gelled

O=C(O)CNC(=O)c1ccccc1 [Hippuric acid]
Salt-forming morphology [1]: Oil^#

O=C(O)/C=C\C(=O)O [Maleic acid]
Salt-forming morphology [1]: Gel^#

COc1ccc(CCC(=O)N(CCCN)CCCNCCCN(CCCN)C(=O)CCc2ccc(OC)c(OC)c2)cc1OC [bis((N-3-aminopropyl)-(N-(3,4-dimethoxyphenylpropionyl)))aminopropylamine phosphate]
Change in properties and purity on storage ([5]; 25° C./60% RH, open vial): no obvious change in properties and purity
Purity (peak area, %) 0 day ([5]; 25° C./60% RH, open vial, HPLC): 99.56%
Stability (judgement in words) [5]: good stability
Hygroscopicity class [2]: slightly hygroscopic
Hygroscopicity (%) [2]: 1.29%
solubility ([7]; simulated fasting intestinal juice (FaSSIF), fassif, simulated fasting intestinal juice, read-out: Solubility in FaSSIF): > 9000 µg/mL
solubility ([7]; simulated feeding intestinal juice (FeSSIF), fessif, simulated feeding intestinal juice, read-out: Solubility in FeSSIF): > 9000 µg/mL
solubility ([7]; simulated gastric juice (SGF), simulated gastric fluid, simulated gastric juice, read-out: Solubility in SGF): > 9000 µg/mL
solubility ([7]; water, 30 mg in 3 mL, read-out: Solubility in water): > 9000 µg/mL
pH value change during dynamic solubility test ([7]; within 24 h): did not change

COc1ccc(CCC(=O)N(CCCN)CCCNCCCN(CCCN)C(=O)CCc2ccc(OC)c(OC)c2)cc1OC [Example 7, bis((N-3-aminopropyl)-(N-(3,4-dimethoxyphenylpropionyl)))aminopropylamine phosphate]
Change in crystal form after storage ([8]; 25° C./60% RH): no change in crystal form
Change in crystal form after storage ([8]; 60° C.): no change in crystal form
Change in crystal form after storage ([8]; 80° C.): no change in crystal form
Change in crystal form after storage ([8]; illumination): no change in crystal form
